From publication PMC9305538 (Chembiochem, 2022) come the findings set out here.

Each structure is given as a SMILES string. Like-named read-outs stand apart in the source and are kept apart here.

For assay [1], the system named is FDHC23S+AzoRo. Conditions: 1 mM NAD+; 50 mM phosphate pH 7; 25 °C; apparent; FDH part.
Assay [2] deals with FDHC23S+AzoRo. Conditions: 150 μM NADH; 50 μM FMN; 50 mM phosphate pH 7; 25 °C; apparent; AzoRo part.
Assay [3] concerns FDHC23S+AzoRo. Conditions: 150 μM NADH; 50 μM FMN; 50 mM phosphate pH 7; 25 °C; apparent; AzoRo part. This is another data set of the same source.

For `O=CO` [Formate], in assay [1], the Km (as a rule, the concentration of substrate that gives half-maximal velocity) is 48900 ± 4880 µM.
As for `CN(C)c1ccc(/N=N/c2ccccc2C(=O)O)cc1` [compound 1, methyl red], the Km in assay [2] worked out at 73.9 ± 47.5 µM.
Consider `CC(=O)Nc1ccc(S(=O)(=O)O)c2cc(S(=O)(=O)O)c(N=Nc3ccc(N=Nc4ccc(S(=O)(=O)O)cc4)c4ccc(S(=O)(=O)O)cc34)c(O)c12` [compound 5, Brilliant Black BN], for which the Km in assay [3] stood at 6.01 ± 1.39 µM.
